Active and inactive are the calls of the source. Peptide text beside a SMILES is read from it. Bounds are passed on as bounds.

Sequence of Cytochrome P450 2D6 (P10635 whole entry): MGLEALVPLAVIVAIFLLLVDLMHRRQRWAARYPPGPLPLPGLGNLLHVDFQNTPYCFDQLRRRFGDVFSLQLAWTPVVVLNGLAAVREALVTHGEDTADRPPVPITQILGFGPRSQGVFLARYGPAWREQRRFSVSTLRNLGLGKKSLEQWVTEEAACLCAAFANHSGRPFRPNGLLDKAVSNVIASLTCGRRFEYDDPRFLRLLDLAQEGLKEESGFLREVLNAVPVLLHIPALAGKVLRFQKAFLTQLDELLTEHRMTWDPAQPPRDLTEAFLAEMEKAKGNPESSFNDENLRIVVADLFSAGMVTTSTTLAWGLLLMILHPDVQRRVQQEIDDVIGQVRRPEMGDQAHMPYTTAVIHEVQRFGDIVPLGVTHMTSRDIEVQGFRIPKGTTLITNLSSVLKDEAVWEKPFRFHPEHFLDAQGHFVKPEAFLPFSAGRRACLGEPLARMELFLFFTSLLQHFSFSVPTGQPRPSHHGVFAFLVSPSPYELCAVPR
Sequence of Cytochrome P450 2C9 (P11712 whole entry): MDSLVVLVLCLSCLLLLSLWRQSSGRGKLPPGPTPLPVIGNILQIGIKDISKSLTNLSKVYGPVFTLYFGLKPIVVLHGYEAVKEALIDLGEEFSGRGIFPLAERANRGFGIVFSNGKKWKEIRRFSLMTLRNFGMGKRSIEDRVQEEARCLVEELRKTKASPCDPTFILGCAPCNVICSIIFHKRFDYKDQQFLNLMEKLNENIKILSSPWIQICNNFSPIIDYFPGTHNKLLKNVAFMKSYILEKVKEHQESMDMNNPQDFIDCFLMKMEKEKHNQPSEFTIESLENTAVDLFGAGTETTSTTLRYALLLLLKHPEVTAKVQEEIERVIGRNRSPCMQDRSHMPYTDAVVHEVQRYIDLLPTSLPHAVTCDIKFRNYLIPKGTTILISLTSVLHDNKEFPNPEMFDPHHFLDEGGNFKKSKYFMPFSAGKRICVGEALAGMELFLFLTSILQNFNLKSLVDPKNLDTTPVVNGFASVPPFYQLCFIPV

The first assay has as its target Cytochrome P450 2C9 (Homo sapiens, UniProt P11712).
Conditions: not given
Turning to `Cc1cccc(NC2=NN=C(c3ccc4c(c3)OCCO4)CS2)c1`, the half-maximal activity concentration (AC50) was 5.62 µM (inconclusive).
As for `O=C(NC1CCCc2ccccc21)C1CCN(S(=O)(=O)N2CCCCCC2)CC1` (stereo unspecified), the AC50 was 31.6 µM (inconclusive).
Turning to `O=C(c1cccc(F)c1)N1CCC[C@@]2(CCN(Cc3ccncc3)C2)C1`, the AC50 is 20 µM (inconclusive).
Still for that read-out and setting: next, `O=c1c(CCc2ccccc2)nc2cncnc2n1-c1ccccc1`: 25.1 µM (inconclusive).

A further assay addresses T1, Cytochrome P450 1A2 (Homo sapiens, UniProt P05177).
T1 sequence (P05177 whole entry): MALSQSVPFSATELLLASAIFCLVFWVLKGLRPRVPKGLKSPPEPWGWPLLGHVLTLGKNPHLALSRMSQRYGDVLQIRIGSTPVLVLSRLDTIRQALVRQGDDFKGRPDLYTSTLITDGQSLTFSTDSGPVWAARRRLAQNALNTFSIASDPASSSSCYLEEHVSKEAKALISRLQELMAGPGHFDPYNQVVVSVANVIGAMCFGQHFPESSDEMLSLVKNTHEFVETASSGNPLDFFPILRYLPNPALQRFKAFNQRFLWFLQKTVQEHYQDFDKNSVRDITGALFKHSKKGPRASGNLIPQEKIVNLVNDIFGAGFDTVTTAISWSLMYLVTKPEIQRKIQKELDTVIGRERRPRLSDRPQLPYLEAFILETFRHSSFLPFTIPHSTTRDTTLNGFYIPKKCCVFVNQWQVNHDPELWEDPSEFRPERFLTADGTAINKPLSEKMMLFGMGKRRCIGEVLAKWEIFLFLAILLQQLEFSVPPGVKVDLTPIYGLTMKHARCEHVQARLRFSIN
Conditions: not given
Consider `O=C1c2ccccc2CCC12N=NCC2c1ccc(Cl)cc1` (stereo unspecified), for which the AC50 was 20 µM (inconclusive).
Same read-out and setting: next, `FC(F)(F)c1nc2nc(Cl)c(Cl)nc2n1CCCN1CCOCC1`: 3.16 µM (inconclusive).
Turning to `O=C(c1nn(Cc2ccccc2)c(=O)c2ccccc12)N1CCN(C/C=C/c2ccccc2)CC1`, the AC50 is 20 µM (inconclusive).
The same measure, in the same setting: next, `CCN(CC)CCNC(=O)c1cc(Br)c(N)cc1OC` [BROMOPRIDE]: 10 µM (inconclusive).

Another assay deals with Cytochrome P450 2C19 (Homo sapiens, UniProt P33261). In words: Cytochrome panel assay with activity outcomes. Panel member name: p450-cyp2c19 Compounds with AC50 equal or less than 10 uM are considered active. In kind it is functional. To be noted: read-out: AC50.
Sequence of Cytochrome P450 2C19 (P33261 whole entry): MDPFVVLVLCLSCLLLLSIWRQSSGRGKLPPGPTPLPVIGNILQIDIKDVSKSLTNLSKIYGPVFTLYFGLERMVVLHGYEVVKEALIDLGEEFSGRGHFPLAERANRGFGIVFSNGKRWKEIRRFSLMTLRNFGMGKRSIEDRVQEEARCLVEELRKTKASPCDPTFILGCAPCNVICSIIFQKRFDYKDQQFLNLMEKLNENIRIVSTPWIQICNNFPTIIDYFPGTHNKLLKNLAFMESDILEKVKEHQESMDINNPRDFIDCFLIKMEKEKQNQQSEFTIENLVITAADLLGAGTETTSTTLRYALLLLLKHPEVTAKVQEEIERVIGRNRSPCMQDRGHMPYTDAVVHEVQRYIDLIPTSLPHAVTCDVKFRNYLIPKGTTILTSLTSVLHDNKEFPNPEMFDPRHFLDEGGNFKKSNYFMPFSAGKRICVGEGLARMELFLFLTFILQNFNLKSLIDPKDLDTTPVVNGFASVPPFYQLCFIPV
Regarding `Cc1cccc(NC2=NN=C(c3ccc4c(c3)OCCO4)CS2)c1`, the AC50 is 5.01 µM (inconclusive).
Same read-out and setting: next, `CCc1ccc(NC(=S)N2CCN(c3cccc(C(F)(F)F)c3)CC2)cc1`: 4.47 µM (inconclusive); `CCc1c2c(nc3cccc(OC)c13)OC(CC)C2` (stereo unspecified): 20 µM (inconclusive).
With `COC(=O)C(CC(C)C)NC(=O)C(N)Cc1ccccc1` (stereo not drawn) (H-Phe-Leu-OMe; configuration not given here), the AC50 was 17.8 µM (inconclusive).

For the next assay, the target named is Cytochrome P450 3A4 (Homo sapiens, UniProt P08684).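 Note: CYP3A4 tested as one member of a cytochrome P450 panel screen.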
Sequence of Cytochrome P450 3A4 (P08684 whole entry): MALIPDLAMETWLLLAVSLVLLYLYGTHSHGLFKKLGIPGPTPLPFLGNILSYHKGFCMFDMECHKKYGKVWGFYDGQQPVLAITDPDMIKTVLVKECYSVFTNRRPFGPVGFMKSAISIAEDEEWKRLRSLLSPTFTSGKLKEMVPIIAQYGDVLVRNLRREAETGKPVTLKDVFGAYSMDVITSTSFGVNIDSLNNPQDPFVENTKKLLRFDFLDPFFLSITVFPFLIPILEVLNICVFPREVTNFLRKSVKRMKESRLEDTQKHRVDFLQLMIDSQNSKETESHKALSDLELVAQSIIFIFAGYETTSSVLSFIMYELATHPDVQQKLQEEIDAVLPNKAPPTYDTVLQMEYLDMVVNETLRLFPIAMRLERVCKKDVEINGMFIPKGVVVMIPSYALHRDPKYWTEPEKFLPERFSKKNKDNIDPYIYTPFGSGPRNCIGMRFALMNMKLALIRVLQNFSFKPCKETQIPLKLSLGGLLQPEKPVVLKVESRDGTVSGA
Conditions: not given
For `Cc1cccc(NC2=NN=C(c3ccc4c(c3)OCCO4)CS2)c1`, the AC50 is 2.82 µM (inconclusive).
`O=C1c2ccccc2CCC12N=NCC2c1ccc(Cl)cc1` (stereo unspecified): the AC50 is 39.8 µM (inconclusive).
Still for that read-out and setting: next, `FC(F)(F)c1nc2nc(Cl)c(Cl)nc2n1CCCN1CCOCC1`: 5.01 µM (inconclusive); `O=c1c(CCc2ccccc2)nc2cncnc2n1-c1ccccc1`: 5.01 µM (inconclusive).
On the same count and under the same terms, next, `COCC(=O)N1CCC2(CCCN(Cc3ccncc3)C2)CC1`: 12.6 µM (inconclusive).

Test system in a further assay: not listed separately
Put plainly: HEp-2 cell cytotoxicity, dose response, cytotoxicity control for RSV inhibitor project, HTS (AID 2410). To be noted: human respiratory syncytial virus. It is filed as functional.
Consider `NC(=O)c1cc2n(n1)C(C(F)(F)F)CC(c1ccco1)N2` (stereo unspecified), for which the CC50 was 24.5 µM (active).
On the same count and under the same terms, next, `Cc1ccc(-c2nnn(CC(=O)N(Cc3ccco3)C(C(=O)NC(C)(C)C)c3ccc(C)o3)n2)o1` (stereo unspecified): > 50 µM (active); `Cc1ccnc(NC(=O)c2cccc(S(=O)(=O)N3CCN(c4ccc(F)cc4)CC3)c2)c1`: 13.4 µM (active); `O=C(c1ccccc1Cc1ccccc1)N1CCN(S(=O)(=O)c2ccccc2Br)CC1`: 33.7 µM (active).
Still for that read-out and setting: next, `C=CCNC(=O)c1c(O)c2cccc3c2n(c1=O)CCC3`: > 50 µM (active); `Cc1ccc(C)c(N2CCN(C(=O)C3CCCN(c4ncnc5c4nc4n5CCCCC4)C3)CC2)c1` (stereo unspecified): 20.6 µM (active); `C=C(Cl)COc1ccc2c(CCCC)cc(=O)oc2c1`: 38.2 µM (active).
On to `S=C(c1ccc(-c2ccc(Cl)c(Cl)c2)o1)N1CCOCC1`, for which the CC50 was 29.4 µM (active).

Test system in a further assay: not listed separately
Put plainly: inhibitors of firefly luciferase expression or activity, dose response, H4 neuroglioma cells, luminescence (AID 1990). In kind it is functional, cell-based.
Conditions: not given
For the compound `Fc1ccc(-n2cc(-c3ccccc3)c3c(NN4CCOCC4)ncnc32)cc1`, the EC50 was > 120 µM (not active).

Another assay concerns the target Cytochrome P450 2D6 (Homo sapiens, UniProt P10635).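 Note: CYP2D6 member of a cytochrome P450 panel assay.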
Conditions: not given
In the case of `Cc1cccc(NC2=NN=C(c3ccc4c(c3)OCCO4)CS2)c1`, the AC50 was 17.8 µM (inconclusive).
Regarding `O=C(NC1CCCc2ccccc21)C1CCN(S(=O)(=O)N2CCCCCC2)CC1` (stereo unspecified), the AC50 is 20 µM (inconclusive).
Still for that read-out and setting: next, `CCOCc1cnc(C)nc1NCC(=O)c1c(C)[nH]c2ccccc12`: 12.6 µM (inconclusive); `O=C(c1cccc(F)c1)N1CCC[C@@]2(CCN(Cc3ccncc3)C2)C1`: 25.1 µM (inconclusive).
Same read-out and setting: next, `O=C1c2ccccc2CCC12N=NCC2c1ccc(Cl)cc1` (stereo unspecified): 28.2 µM (inconclusive); `FC(F)(F)c1nc2nc(Cl)c(Cl)nc2n1CCCN1CCOCC1`: 3.98 µM (inconclusive).
Turning to `CCc1ccc(NC(=S)N2CCN(c3cccc(C(F)(F)F)c3)CC2)cc1`, the AC50 was 0.01 µM (inconclusive).
On the same count and under the same terms, next, `O=C(c1nn(Cc2ccccc2)c(=O)c2ccccc12)N1CCN(C/C=C/c2ccccc2)CC1`: 17.8 µM (inconclusive); `COc1ccccc1-c1cc(NCc2cnc(C)cn2)ncn1`: 20 µM (inconclusive).
Same read-out and setting: next, `O=c1c(CCc2ccccc2)nc2cncnc2n1-c1ccccc1`: 25.1 µM (inconclusive); `CCc1c2c(nc3cccc(OC)c13)OC(CC)C2` (stereo unspecified): 39.8 µM (inconclusive).
On the same count and under the same terms, next, `COCC(=O)N1CCC2(CCCN(Cc3ccncc3)C2)CC1`: 15.8 µM (inconclusive).
Regarding `COC(=O)C(CC(C)C)NC(=O)C(N)Cc1ccccc1` (stereo not drawn) (H-Phe-Leu-OMe; configuration not given here), the AC50 was 15.8 µM (inconclusive).
Same read-out and setting: next, `CCN(CC)CCNC(=O)c1cc(Br)c(N)cc1OC` [BROMOPRIDE]: 5.01 µM (inconclusive).

Test system in a further assay: not listed separately
Put plainly: inhibitors of SNCA 5'UTR-driven reporter translation, confirmation, H4 neuroglioma cells, luminescence (AID 1988). It is filed as functional, cell-based.
Conditions: not given
`Fc1ccc(-n2cc(-c3ccccc3)c3c(NN4CCOCC4)ncnc32)cc1`: the EC50 is on record as > 120 µM (not active).

The AC50 is the concentration giving half of the maximal activity seen. What is called CC50 is the concentration at which the toxic effect on the cells reaches its halfway point. As usually defined, the EC50 is the concentration that produces a half-maximal response. Read a high EC50 as lower potency in that assay.
